Reference: patent US11083728B2, “Compositions of cyclin dependent kinase 7 (CDK7) inhibitor” (Syros Pharmaceuticals, Inc., priority 2017, dated 2021)
Values after ≈ are worked out from the molar mass of the structure shown. Read-outs that look alike come from different tables or passages of the source.

Columns and labels:
Format in all cases: physicochemical
[1] = Long-term storage stability in co-solvents PEG 300 and PEG 400
[2] = Infusion solution stability in 0.9% Sodium Chloride for Injection; details: for Change in concentration: initial vs 4 hours at ambient temperature and light
Protocol: For the infusion solution stability study, duplicate dilutions of the reconstituted Compound 1 in 0.9% Sodium Chloride for Injection, LISP to provide the low (0.01 mg/mL) and high dose (0.6 mg/mL) were prepared. Infusion bags and sets used were made of polyolefin and polyethylene-lined respectively. To bracket the concentrations to be used in the clinic, two concentrations (0.01 mg/mL and 0.6 mg/mL of Compound 1) representing lowest and highest doses were selected. The stability of low and high dose infusion bag dilution is summarized in Table 3 and Table 4, respectively.

[3] = Equilibrium solubility in various pharmaceutical excipients
[4] = Stability of reconstituted solution of the particulate composition (5 mg/mL)
Protocol: The stability of the reconstituted solution of the particulate composition of Compound 1 of Example 1 was determined up to 4 hours. Duplicate vials of Compound 1 were reconstituted each with 5 mL of Water for Injection, USP.

[5] = infusion solution 0.01 mg/mL, 4 hours
[6] = infusion solution 0.01 mg/mL, Initial
[7] = infusion solution 0.6 mg/mL, 4 hours
[8] = infusion solution 0.6 mg/mL, Initial
[9] = reconstituted solution 5 mg/mL, 4 hours
[10] = reconstituted solution 5 mg/mL, Initial
[11] = reconstituted solution, initial vs 4 hours at room temperature and light

Stability on long-term storage [1]: unstable
Change in concentration ([2]; high dose (0.6 mg/mL)): no changes
Appearance [2, 5]: Yellowish Clear solution
Compound 1 concentration [2, 5]: 0.0099 mg/mL
pH [2, 5]: 8.1
Appearance [2, 6]: Yellowish Clear solution
Compound 1 concentration [2, 6]: 0.0096 mg/mL
pH [2, 6]: 7.6
Appearance [2, 7]: Yellowish Clear
Compound 1 concentration [2, 7]: 0.551 mg/mL
Impurities, RRT 1.03 [2, 7]: RRT 1.03 = 0.71% a/a
Impurities, RRT 1.22 [2, 7]: RRT 1.22 = 0.06% a/a
Impurities, RRT 1.43 [2, 7]: RRT = 1.43 = 0.51% a/a
Impurities, RRT 1.60 [2, 7]: RRT = 1.60 = 0.08% a/a
Impurities, Total [2, 7]: Total = 1.4% a/a
pH [2, 7]: 3.6
Appearance [2, 8]: Yellowish Clear
Compound 1 concentration [2, 8]: 0.552 mg/mL
Impurities, RRT 1.03 [2, 8]: RRT 1.03 = 0.71% a/a
Impurities, RRT 1.22 [2, 8]: RRT 1.22 = 0.06% a/a
Impurities, RRT 1.43 [2, 8]: RRT = 1.43 = 0.51% a/a
Impurities, RRT 1.60 [2, 8]: RRT = 1.60 = 0.08% a/a
Impurities, Total [2, 8]: Total = 1.4% a/a
pH [2, 8]: 3.6
Change in concentration ([2]; low dose (0.01 mg/mL)): no changes
Change in pH ([2]; low dose dilution (0.01 mg/mL), initial vs 4 hours): increase
solubility ([3]; 50 mM Borate pH 10): <LOQ
solubility ([3]; 50 mM KCl, pH 2, simulated gastric fluid, thermodynamic from solid, 50 mM KCl, pH 2, read-out: Solubility): 3600 µg/mL (≈ 6.13 mM)
solubility ([3]; 50 mM Phosphate pH 8): <LOQ
solubility ([3]; 50 mM citrate, pH 4, aqueous buffer, thermodynamic from solid, 50 mM Citrate pH 4, read-out: Solubility): 3.7 µg/mL (≈ 0.0063 mM)
solubility ([3]; 50 mM phosphate buffer, pH 6, aqueous buffer, thermodynamic from solid, 50 mM Phosphate pH 6, read-out: Solubility): 1.9 µg/mL (≈ 0.00324 mM)
solubility ([3]; 10% Captisol in phosphate buffer, pH 5.5, aqueous with cosolvent or surfactant or cyclodextrin, thermodynamic from solid, 10% Captisol, pH 5.5 (phosphate buffer), read-out: Solubility): 4600 µg/mL (≈ 7.83 mM)
solubility ([3]; 20% Captisol in phosphate buffer, pH 5.5, aqueous with cosolvent or surfactant or cyclodextrin, thermodynamic from solid, 20% Captisol, pH 5.5 (phosphate buffer), read-out: Solubility): 5900 µg/mL (≈ 10 mM)
solubility ([3]; 20% Captisol, 0.1% Tween 80, pH adjusted with HCl, pH 3.5, aqueous with cosolvent or surfactant or cyclodextrin, thermodynamic from solid, 20% Captisol, 0.1% Tween 80, pH 3.5, (HCl), read-out: Solubility): > 10000 µg/mL
Solubility (in words) ([3]; Captisol, especially with acidic conditions (pH 3-4) and Tween 80): good solubility
solubility ([3]; PEG 300): >19400 µg/mL
solubility ([3]; PEG 300, organic solvent or mixture, thermodynamic from solid, PEG 300, read-out: Solubility): > 19000 µg/mL
solubility ([3]; PEG 400): >20800 µg/mL
solubility ([3]; PEG 400, organic solvent or mixture, thermodynamic from solid, PEG 400, read-out: Solubility): > 19000 µg/mL
solubility ([3]; Sorensen phosphate Buffer): <LOQ
solubility ([3]; Tween 80, aqueous with cosolvent or surfactant or cyclodextrin, thermodynamic from solid, Tween 80, read-out: Solubility): 18300 µg/mL (≈ 31.2 mM)
solubility ([3]; dehydrated alcohol, organic solvent or mixture, thermodynamic from solid, Dehydrated Alcohol, read-out: Solubility): 3600 µg/mL (≈ 6.13 mM)
Solubility (in words) ([3]; in water): poorly soluble
solubility ([3]; propylene glycol, organic solvent or mixture, thermodynamic from solid, Propylene Glycol, read-out: Solubility): 4000 µg/mL (≈ 6.81 mM)
solubility ([3]; t-butanol, organic solvent or mixture, thermodynamic from solid, t-Butanol, read-out: Solubility): 3200 µg/mL (≈ 5.45 mM)
solubility ([3]; water, thermodynamic from solid, Water, read-out: Solubility): 0.12 µg/mL (≈ 0.000204 mM)
Compound 1 concentration [4, 9]: 4.48 mg/mL
Impurities, RRT 1.04 [4, 9]: RRT 1.04 = 0.70% a/a
Impurities, RRT 1.23 [4, 9]: RRT 1.23 = 0.07% a/a
Impurities, RRT 1.44 [4, 9]: RRT 1.44 = 0.59% a/a
Impurities, RRT 1.47 [4, 9]: RRT 1.47 = 0.42% a/a
Impurities, RRT 1.61 [4, 9]: RRT 1.61 = 0.09% a/a
Impurities, Total [4, 9]: Total = 1.9% a/a
pH [4, 9]: 3.2
Appearance ([4]; reconstituted solution 5 mg/mL, 4 hours, room temperature and light): Yellowish Clear solution
Compound 1 concentration [4, 10]: 4.75 mg/mL
Impurities, RRT 1.04 [4, 10]: RRT 1.04 = 0.71% a/a
Impurities, RRT 1.23 [4, 10]: RRT 1.23 = 0.10% a/a
Impurities, RRT 1.46 [4, 10]: RRT 1.46 = 0.55% a/a
Impurities, RRT 1.48 [4, 10]: RRT1.48 = 0.4 % a/a
Impurities, RRT 1.62 [4, 10]: RRT1.62 = 0.0 % a/a
Impurities, Total [4, 10]: Total = 1.9% a/a
pH [4, 10]: 3.2
Appearance ([4]; reconstituted solution 5 mg/mL, Initial, n = 2): Yellowish Clear solution
Change in appearance and pH [4, 11]: unchanged
Change in concentration of Compound 1 [4, 11]: slight decrease
Change in impurities [4, 11]: no measurable change
Structure (SMILES): CN(C)C/C=C/C(=O)Nc1ccc(C(=O)N[C@@]2(C)CCC[C@@H](Nc3ncc(Cl)c(-c4c[nH]c5ccccc45)n3)C2)nc1 [Compound 1, N-((1S,3R)-3-(5-chloro-4-(1H-indol-3-yl)pyrimidin-2-ylamino)-1-methylcyclohexyl)-5-((E)-4-(dimethylamino)but-2-enamido)picolinamide]
